Measured values as given in US20240360146A1, “BRUTON'S TYROSINE KINASE AND MUTANT DEGRADER, COMPOSITION AND APPLICATION THEREOF” (HANGZHOU HEALZEN THERAPEUTICS CO., LTD., priority 2021, published 2024).

Key:
Format in all cases: cell-based
BTK = target: T1, BTK (Homo sapiens, UniProt Q06187); experiment: BTK degradation activity test in Mino cells; details: 16 h incubation, Western blot or Elisa
T1 construct: endogenous in cells; host or cells: Mino cells
How it was run: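 Mino cells treated with a concentration series of compound for 16 h, then lysed; total protein by BCA. BTK quantified by Western blot or ELISA, degradation rate calculated against blank control, and DC50 fitted from the degradation curve.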

OCI-LY10 cells = experiment: Inhibitory activity on OCI-LY10 cell proliferation (MTS); details: Homo sapiens, 72 h
Experimental: (§1) The anti-tumor efficacy of the compounds was tested by measuring their inhibitory effects on OCI-LY10 and Mino cell proliferation. OCI-LY10 and Mino cells were cultured in RPMI-1640 medium containing 10% fetal calf serum. OCI-LY10 and Mino cells were digested, inoculated in a 96-well plate at a cell concentration of 10000 cells/well, and incubated overnight at 37° C., 5% CO2. Compounds of different concentrations (1000 nM, 4-fold dilution, 8 points) were added to the 96-well plate and incubated for 72 h (LY10) or 168 h (Mino) at 37° C. and 5% CO2, and then 20 uL of MTS was added to each well. After incubation for 2 h, 25 μl of 10% SDS was added to each well to terminate the reaction. The absorbance at 490 nm and 650 nm were measured with a microplate reader. IC50 was calculated using GraphPad Prism 5.0.

Mino cells = experiment: Inhibitory activity on Mino cell proliferation (MTS); details: Homo sapiens, 168 h incubation
Experimental: as §1

T1 sequence (Q06187 whole entry): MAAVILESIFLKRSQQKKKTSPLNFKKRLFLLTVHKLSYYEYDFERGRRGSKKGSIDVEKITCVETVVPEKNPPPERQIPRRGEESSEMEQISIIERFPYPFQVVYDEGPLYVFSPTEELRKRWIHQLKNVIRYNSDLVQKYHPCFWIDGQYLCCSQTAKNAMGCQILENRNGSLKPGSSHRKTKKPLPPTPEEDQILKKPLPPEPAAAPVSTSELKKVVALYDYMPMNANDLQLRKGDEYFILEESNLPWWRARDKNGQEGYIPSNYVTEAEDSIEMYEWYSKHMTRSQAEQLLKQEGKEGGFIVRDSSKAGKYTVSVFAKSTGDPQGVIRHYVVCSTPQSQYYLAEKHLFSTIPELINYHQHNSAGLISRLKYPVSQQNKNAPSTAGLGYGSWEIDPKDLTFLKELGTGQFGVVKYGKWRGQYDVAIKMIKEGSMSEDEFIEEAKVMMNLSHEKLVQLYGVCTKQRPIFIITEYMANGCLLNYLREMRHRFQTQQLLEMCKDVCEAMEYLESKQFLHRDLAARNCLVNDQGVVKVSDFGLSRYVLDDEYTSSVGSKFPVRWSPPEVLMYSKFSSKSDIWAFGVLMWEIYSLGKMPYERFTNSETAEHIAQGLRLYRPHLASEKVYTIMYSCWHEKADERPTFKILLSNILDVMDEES

SMILES	DC50 (BTK) [nM]	IC50 (OCI-LY10 cells) [nM]	IC50 (Mino cells) [nM]
CN1CCN([C@@H]2CCCN(c3nnc(C(N)=O)c(Nc4ccc(N5CCC(CN6CCN(c7ccc8c(c7)C(=O)N(C7CCC(=O)NC7=O)C8=O)CC6)CC5)cc4)n3)C2)C1=O (stereo partly drawn) [Compound 119, 5-((4-(4-((4-(2-(2,6-dioxopiperidin-3-yl)-1,3-dioxoisoindolin-5-yl)piperazin-1-yl)methy 1)piperidin-1-yl)phenyl)amino)-3-((R)-3-(3-methyl-2-oxoimidazolin-1-yl)piperidin-1-yl)-1,2,4-triazin-6-carboxamide]	< 1	0.38	8.09
CN1CCN([C@@H]2CCCN(c3nnc(C(N)=O)c(Nc4ccc(C5CCN(CC6(C)CCN(c7ccc8c(c7)C(=O)N(C7CCC(=O)NC7=O)C8=O)C6)CC5)cc4)n3)C2)C1=O (stereo partly drawn) [Compound 120, 5-((4-(1-((1-(2-(2,6-dioxopiperidin-3-yl)-1,3-dioxoisoindolin-5-yl)-3-methylpyrrolidin-3-yl)methyl)piperidin-4-yl)phenyl)amino)-3-((R)-3-(3-methyl-2-oxoimidazolin-1-yl)piperidin-1-yl)-1,2,4-triazin-6-carboxamide]	< 1	0.21	1.76
CN1CCN([C@@H]2CCCN(c3nnc(C(N)=O)c(Nc4ccc(C5CCN(CC6(F)CCN(c7ccc8c(c7)C(=O)N(C7CCC(=O)NC7=O)C8=O)C6)CC5)cc4)n3)C2)C1=O (stereo partly drawn) [Compound 121, 5-((4-(1-((1-(2-(2,6-dioxopiperidin-3-yl)-1,3-dioxoisoindolin-5-yl)-3-fluoropyrrolidin-3-yl)methyl)piperidin-4-yl)phenyl)amino)-3-((R)-3-(3-methyl-2-oxoimidazolin-1-yl)piperidin-1-yl)-1,2,4-triazin-6-carboxamide]	< 1	0.74	3.75
CN1CCN([C@@H]2CCCN(c3nnc(C(N)=O)c(Nc4ccc(C5CCN(CC6CCN(c7ccc8c(c7)C(=O)N(C7CCC(=O)NC7=O)C8=O)C6)CC5)cc4)n3)C2)C1=O (stereo partly drawn) [Compound 124, 5-((4-(1-((1-(2-(2,6-dioxopiperidin-3-yl)-1,3-dioxoisoindolin-5-yl)pyrrolidin-3-yl)methyl)piperidin-4-yl)phenyl)amino)-3-((R)-3-(3-methyl-2-oxoimidazolin-1-yl)piperidin-1-yl)-1,2,4-triazin-6-carboxamide]	< 1	< 0.26	4.95
CN1CCN([C@@H]2CCCN(c3nnc(C(N)=O)c(Nc4ccc(C5CCN(C(=O)C6CCN(c7ccc8c(c7)C(=O)N(C7CCC(=O)NC7=O)C8=O)C6)CC5)cc4)n3)C2)C1=O (stereo partly drawn) [Compound 127, 5-((4-(1-(1-(2-(2,6-dioxopiperidin-3-yl)-1,3-dioxoisoindolin-5-yl)pyrrolidin-3-carbonyl)piperidin-4-yl)phenyl)amino)-3-((R)-3-(3-methyl-2-oxoimidazolin-1-yl)piperidin-1-yl)-1,2,4-triazin-6-carboxamide]	< 1	0.39	2.04
CN1CCN([C@@H]2CCCN(c3nnc(C(N)=O)c(Nc4ccc(C5CCN(CC6CCN(c7ccc8c(c7)C(=O)N(C7CCC(=O)NC7=O)C8=O)CC6)CC5)c(F)c4)n3)C2)C1=O (stereo partly drawn) [Compound 129, 5-((4-(1-((1-(2-(2,6-dioxopiperidin-3-yl)-1,3-dioxoisoindolin-5-yl)piperidin-4-yl)methyl)piperidin-4-yl)-3-fluorophenyl)amino)-3-((R)-3-(3-methyl-2-oxoimidazolin-1-yl)piperidin-1-yl)-1,2,4-triazin-6-carboxamide]	< 1	0.14	3.09
CN1C(=O)N([C@@H]2CCCN(c3nnc(C(N)=O)c(Nc4ccc(C5CCN(CC6CCN(c7ccc8c(c7)C(=O)N(C7CCC(=O)NC7=O)C8=O)CC6)CC5)cc4)n3)C2)CC12CC2 (stereo partly drawn) [Compound 138, 5-((4-(1-((1-(2-(2,6-dioxopiperidin-3-yl)-1,3-dioxoisoindolin-5-yl)piperidin-4-yl)methyl)piperidin-4-yl)phenyl)amino)-3-((R)-3-(4-methyl-5-oxo-4,6-diazaspiro[2.4]heptan-6-yl)piperidin-1-yl)-1,2,4-triazin-6-carboxamide]	< 1	0.08	3.11
NC(=O)c1nnc(N2CCC[C@@H](N3CCN(CC(F)(F)F)C3=O)C2)nc1Nc1ccc(C2CCN(CC3CCN(c4ccc5c(c4)C(=O)N(C4CCC(=O)NC4=O)C5=O)CC3)CC2)cc1 (stereo partly drawn) [Compound 141, 5-((4-(1-((1-(2-(2,6-dioxopiperidin-3-yl)-1,3-dioxoisoindolin-5-yl)piperidin-4-yl)methyl)piperidin-4-yl)phenyl)amino)-3-((R)-3-(2-oxo-3-(2,2,2-trifluoroethyl)imidazolin-1-yl)piperidin-1-yl)-1,2,4-triazin-6-carboxamide]	< 1	2.19	3.92
CN1CCN([C@@H]2CCCN(c3nnc(C(N)=O)c(Nc4ccc(N5CCN(CC6CCN(c7ccc8c(c7)CN(C7CCC(=O)NC7=O)C8=O)CC6)CC5)c(F)c4)n3)C2)C1=O (stereo partly drawn) [Compound 167, 5-((4-(4-((1-(2-(2,6-dioxopiperidin-3-yl)-1-oxoisoindolin-5-yl)piperidin-4-yl)methyl)piperazin-1-yl)-3-fluorophenyl)amino)-3-((R)-3-(3-methyl-2-oxoimidazolidin-1-yl)piperidin-1-yl)-1,2,4-triazin-6-carboxamide]	< 1	0.45	2.42
CN1CCN([C@@H]2CCCN(c3nnc(C(N)=O)c(Nc4ccc(N5CCN(CC6CCN(c7ccc8c(c7)C(=O)N(C7CCC(=O)NC7=O)C8)CC6)CC5)c(F)c4)n3)C2)C1=O (stereo partly drawn) [Compound 168, 5-((4-(4-((1-(2-(2,6-dioxopiperidin-3-yl)-3-oxoisoindolin-5-yl)piperidin-4-yl)methyl)piperazin-1-yl)-3-fluorophenyl)amino)-3-((R)-3-(3-methyl-2-oxoimidazolidin-1-yl)piperidin-1-yl)-1,2,4-triazin-6-carboxamide]	< 1	0.79	3.77
CN1CCN([C@@H]2CCCN(c3nnc(C(N)=O)c(Nc4ccc(N5CCN(CC6CCN(c7cc8c(cc7F)C(=O)N(C7CCC(=O)NC7=O)C8=O)CC6)CC5)c(F)c4)n3)C2)C1=O (stereo partly drawn) [Compound 170, 5-((4-(4-((1-(2-(2,6-dioxopiperidin-3-yl)-6-fluoro-1,3-dioxoisoindolin-5-yl)piperidin-4-yl)methyl)piperazin-1-yl)-3-fluorophenyl)amino)-3-((R)-3-(3-methyl-2-oxoimidazolidin-1-yl)piperidin-1-yl)-1,2,4-triazin-6-carboxamide]	< 1	1.25	4.64
Cc1cc(N2CCC(CN3CCN(c4ccc(Nc5nc(N6CCC[C@@H](N7CCN(C)C7=O)C6)nnc5C(N)=O)cc4F)CC3)CC2)ccc1C(=O)NC1CCC(=O)NC1=O (stereo partly drawn) [Compound 180, 5-((4-(4-((1-(4-((2,6-dioxopiperidin-3-yl)carbamoyl)-3-methylphenyl)piperidin-4-yl)methyl)piperazin-1-yl)-3-fluorophenyl)amino)-3-((R)-3-(3-methyl-2-oxoimidazolidin-1-yl)piperidin-1-yl)-1,2,4-triazin-6-carboxamide]	< 1	< 1	1.07
CN1CCN([C@@H]2CCCN(c3nnc(C(N)=O)c(Nc4ccc(N5CCN(CC6CCN(c7ccc(N8CCC(=O)NC8=O)cn7)CC6)CC5)c(F)c4)n3)C2)C1=O [Compound 196, (R)-5-((4-(4-((1-(5-(2,4-dioxotetrahydropyrimidin-1(2H)-yl)pyridin-2-yl)piperidin-4-yl)methyl)piperazin-1-yl)-3-fluorophenyl)amino)-3-(3-(3-methyl-2-oxoimidazolidin-1-yl)piperidin-1-yl)-1,2,4-triazin-6-carboxamide]	< 1	0.52	3.77
CN1CCN([C@@H]2CCCN(c3nnc(C(N)=O)c(Nc4ccc(N5CCN(CC6CCN(c7ccc(NC8CCC(=O)NC8=O)nc7)CC6)CC5)c(F)c4)n3)C2)C1=O (stereo partly drawn) [Compound 202, 5-((4-(4-((1-(6-((2,6-dioxopiperidin-3-yl)amino)pyridin-3-yl)piperidin-4-yl)methyl)piperazin-1-yl)-3-fluorophenyl)amino)-3-((R)-3-(3-methyl-2-oxoimidazolidin-1-yl)piperidin-1-yl)-1,2,4-triazin-6-carboxamide]	< 1	1.05	6.83
CN1CCN([C@@H]2CCCN(c3nnc(C(N)=O)c(Nc4ccc(N5CCN(CC6CCN(c7ccc(NC8CCC(=O)NC8=O)cn7)CC6)CC5)c(F)c4)n3)C2)C1=O (stereo partly drawn) [Compound 203, 5-((4-(4-((1-(5-((2,6-dioxopiperidin-3-yl)amino)pyridin-2-yl)piperidin-4-yl)methyl)piperazin-1-yl)-3-fluorophenyl)amino)-3-((R)-3-(3-methyl-2-oxoimidazolidin-1-yl)piperidin-1-yl)-1,2,4-triazin-6-carboxamide]	< 1	2.65	1.25
